These results are taken from ChEMBL document CHEMBL1201862, “PubChem BioAssay data set” (2004).

Experiment [1] deals with HEK293. The experiment is described as follows: cells. As to conditions: Homo sapiens.
Experiment [2] can be described thus: cells. Type of experiment: functional, cell-based.
The next experiment deals with X-box-binding protein 1 (Homo sapiens, UniProt P17861). Type of experiment: functional, Cricetulus griseus.
The target in experiment [3] is T1, Heat shock factor protein 1 (Mus musculus, UniProt P38532).
T1 sequence (P38532 whole entry): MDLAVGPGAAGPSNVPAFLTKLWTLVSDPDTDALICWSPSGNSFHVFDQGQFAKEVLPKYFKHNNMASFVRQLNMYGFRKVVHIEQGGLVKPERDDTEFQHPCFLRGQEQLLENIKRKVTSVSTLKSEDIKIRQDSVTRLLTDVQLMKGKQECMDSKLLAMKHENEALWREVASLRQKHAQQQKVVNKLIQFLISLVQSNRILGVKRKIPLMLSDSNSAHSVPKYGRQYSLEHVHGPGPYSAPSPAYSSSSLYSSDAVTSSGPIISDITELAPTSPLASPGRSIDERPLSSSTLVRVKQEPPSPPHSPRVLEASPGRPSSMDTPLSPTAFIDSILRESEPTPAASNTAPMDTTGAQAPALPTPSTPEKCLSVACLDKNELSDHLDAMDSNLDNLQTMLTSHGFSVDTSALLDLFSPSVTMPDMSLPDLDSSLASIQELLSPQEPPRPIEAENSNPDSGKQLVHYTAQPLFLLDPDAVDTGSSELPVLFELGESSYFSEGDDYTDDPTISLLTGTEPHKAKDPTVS
As to the kind of experiment: HSF1 potentiators in luciferase reporter cells, confirmation, cell-based, NIH3T3, luminescence, dose retest (AID 435004).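 Note: stress induced by proteasome inhibitor MG132 added 30 min after compound; luciferase reporter driven by HSF1 response element in NIH3T3 cells; actives raise luminescence as potentiators of the MG132 stress response.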 Type of experiment: functional. (A reporter such as luciferase makes a cellular process visible.)

The nature of experiment [4]: HepG2 cell cytotoxicity, dose response, cytotoxicity control for Shn3 inhibitor project, CellTiter-Glo, cherry-picked (AID 624134). The experiment is classed as functional, cell-based. Background: ATP-based viability assays read luminescence as a measure of living cells.
Another experiment concerns BJ. The experiment is described as follows: cytotoxicity toward Ras-transformed BJeLR fibroblasts, dose response, cell-based, alamar blue fluorescence, cherrypicked samples (AID 2631).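 Note: confirmatory dose-response assay in RAS-dependent BJ fibroblasts engineered with TERT, LT and ST, with cytotoxicity read by fluorescence.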 The experiment is classed as functional. The following applies: Homo sapiens. For orientation: Alamar Blue is a resazurin reagent that responds to reducing activity.
Experiment [5] can be described thus: control 3'UTR Renilla luciferase suppression, dose response, counter-screen for Shn3 inhibitor project, cell-based, Clone20-Shn3RL, cherry-picked (AID 624133). Type of experiment: functional.
Experiment [6] can be described thus: HEK293T cell cytotoxicity, dose response, cytotoxicity control for HIV Vif inhibitor project, cherry-picks (AID 652208). The experiment is classed as functional, cell-based.
A short description of experiment [7]: cells. The experiment is classed as functional, cell-based. The source holds these as a separate data set.
Experiment [8] is described as follows: Shn3 3'UTR reporter inhibitors, dose response, cell-based, Clone20 osteoblasts, firefly luciferase, cherry-picked (AID 624132).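 Note: firefly luciferase luminescence from reporter carrying the Shn3 3'UTR in osteoblasts.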 Type of experiment: functional.
For experiment [9], the system named is HEK293. As to the kind of experiment: cells. As to conditions: Homo sapiens. The source holds these as a separate data set.
In a further experiment the test system is A549. The experiment is described as follows: A549 cell toxicity, dose response, cytotoxicity control, plate reader, cherry-pick samples (AID 687028). The experiment is classed as functional, cell-based. As to conditions: Homo sapiens.
Experiment [10] deals with T2, Rac GTPase-activating protein 1 (Homo sapiens, UniProt Q9H0H5).
T2 sequence (Q9H0H5 whole entry): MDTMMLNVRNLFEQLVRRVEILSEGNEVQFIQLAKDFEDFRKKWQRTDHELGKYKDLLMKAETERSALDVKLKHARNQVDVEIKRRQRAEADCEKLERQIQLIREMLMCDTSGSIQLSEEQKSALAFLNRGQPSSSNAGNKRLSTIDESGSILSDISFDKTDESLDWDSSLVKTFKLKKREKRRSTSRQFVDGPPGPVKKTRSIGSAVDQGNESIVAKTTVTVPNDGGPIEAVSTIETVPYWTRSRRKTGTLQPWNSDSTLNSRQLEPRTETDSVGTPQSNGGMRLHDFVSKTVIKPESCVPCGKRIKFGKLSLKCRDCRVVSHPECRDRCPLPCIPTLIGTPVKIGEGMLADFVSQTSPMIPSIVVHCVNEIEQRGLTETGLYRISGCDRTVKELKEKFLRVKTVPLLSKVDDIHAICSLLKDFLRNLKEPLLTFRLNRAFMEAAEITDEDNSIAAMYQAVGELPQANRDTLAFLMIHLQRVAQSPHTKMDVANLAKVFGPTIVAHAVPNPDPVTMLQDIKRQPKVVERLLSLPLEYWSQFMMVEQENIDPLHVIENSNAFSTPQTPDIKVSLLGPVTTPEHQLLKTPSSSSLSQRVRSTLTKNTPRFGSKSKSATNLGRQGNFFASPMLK
The experiment is described as follows: MgcRacGAP GTPase-activating activity inhibitors, confirmation, biochemical, ADP Hunter fluorescence, primary and confirmatory (AID 624330). The experiment is classed as functional.

Experiment [11] has as its target Broad substrate specificity ATP-binding cassette transporter ABCG2 (Homo sapiens, UniProt Q9UNQ0). The experiment is described as follows: ABCG2 efflux pump inhibitors, dose response, Ig-MXP3 cells, flow cytometry (AID 1690). The experiment is classed as functional.
For experiment [12], the target named is ATP-dependent translocase ABCB1 (Homo sapiens, UniProt P08183). As to the kind of experiment: ABCB1 efflux pump inhibitor potency, dose response, Jurkat-DNR cells, JC-1, flow cytometry (AID 1689). Type of experiment: functional.
Experiment [13] concerns the target Fructose-bisphosphate aldolase (Mycobacterium tuberculosis, UniProt P9WQA3). As to the kind of experiment: Fluorescence-based biochemical high throughput dose response assay for inhibitors of the fructose-bisphosphate aldolase (FBA) of M. tuberculosis. Type of experiment: functional.
Experiment [14] can be described thus: cytotoxicity toward NIH3T3 fibroblasts, dose response, counter-screen, cell-based, ATP luminescence, mouse fibroblasts (AID 2010).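 Note: cells exposed to compound for about 90 hours before reading.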 Type of experiment: functional.
Experiment [15] is described as follows: inhibitors of intracellular T. cruzi replication, confirmation, NIH3T3 host cells, beta-gal luminescence (AID 2044).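 Note: intracellular parasites grown in NIH/3T3 mouse fibroblasts as host cells; luminescent beta-galactosidase reporter signal from transgenic T. cruzi replicating inside host cells; inhibitors lower the luminescence signal.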 The experiment is classed as functional, cell-based.
The target in another experiment is Protein Tat (Human immunodeficiency virus type 1 group M subtype B (isolate HXB2)(HIV-1), UniProt P04608). Type of experiment: functional.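 Note: tat binding to TAR RNA read out by fluorescence polarization.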
For experiment [16], the target named is T3, Beta-2 adrenergic receptor (Homo sapiens, UniProt P07550). The experiment is described as follows: Dose response for HTS for Beta-2AR agonists via FAP method from Powderset3. The experiment is classed as functional.
Experiment [17] deals with Peroxisome proliferator-activated receptor gamma/Nuclear receptor coactivator 1 (Homo sapiens, UniProt P37231). Type of experiment: functional.
The target in experiment [18] is Peroxisome proliferator-activated receptor gamma/Nuclear receptor coactivator 2 (Homo sapiens, UniProt P37231). The experiment is classed as functional.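 Note: agonist potency for raising coactivator recruitment to the receptor.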
The target of experiment [19] is T3, Beta-2 adrenergic receptor. The experiment is described as follows: beta2AR agonists driving receptor internalization, dose response, cell-based, FAP fluorogen, flow cytometry, cherry pick 1 (AID 588763). The experiment is classed as functional.
Experiment [20] can be described thus: growth suppression of beta-catenin-knockout colon cells, dose response, cell-based, HCT116, human colon tumor (AID 1045).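 Note: HCT116 colon tumor cells with beta catenin knocked out; cells exposed to compound for 60 hours.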 The experiment is classed as functional.
Experiment [21] can be described thus: growth suppression of PTEN-null colon cells, dose response, cell-based, HCT116 PTEN knockout (AID 1047).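 Note: HCT116 colon tumor cells with PTEN knocked out; cells exposed to compound for 60 hours before readout; potency for loss of cell viability measured by luminescence.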 Type of experiment: functional.
Experiment [22] deals with Peroxisome proliferator-activated receptor gamma/Nuclear receptor coactivator 3 (Homo sapiens, UniProt P37231). Type of experiment: functional.

A word on the EC50: it is the concentration giving half of the maximal effect. Broadly, the AC50 is the concentration giving half of the maximal activity seen. One may read the IC50 as the point on the concentration scale where inhibition reaches its midpoint.

The source made the active and inactive calls.
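Throughout, for Absolute IC50 (XBP1): confirmatory dose-response counter-screen serving a CHOP assay.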

T3 sequence (P07550 whole entry): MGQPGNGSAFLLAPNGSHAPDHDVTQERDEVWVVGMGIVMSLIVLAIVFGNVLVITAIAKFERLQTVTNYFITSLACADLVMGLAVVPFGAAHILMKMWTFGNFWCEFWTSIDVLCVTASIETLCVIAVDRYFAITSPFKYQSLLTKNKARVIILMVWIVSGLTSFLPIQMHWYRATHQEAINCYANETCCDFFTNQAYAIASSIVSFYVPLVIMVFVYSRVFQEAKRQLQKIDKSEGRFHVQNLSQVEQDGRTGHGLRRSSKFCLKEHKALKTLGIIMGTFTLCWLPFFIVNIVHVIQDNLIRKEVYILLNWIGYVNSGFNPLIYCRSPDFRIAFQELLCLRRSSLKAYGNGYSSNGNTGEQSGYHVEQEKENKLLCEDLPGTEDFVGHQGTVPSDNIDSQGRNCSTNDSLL
Sequence of Broad substrate specificity ATP-binding cassette transporter ABCG2 (Q9UNQ0 whole entry): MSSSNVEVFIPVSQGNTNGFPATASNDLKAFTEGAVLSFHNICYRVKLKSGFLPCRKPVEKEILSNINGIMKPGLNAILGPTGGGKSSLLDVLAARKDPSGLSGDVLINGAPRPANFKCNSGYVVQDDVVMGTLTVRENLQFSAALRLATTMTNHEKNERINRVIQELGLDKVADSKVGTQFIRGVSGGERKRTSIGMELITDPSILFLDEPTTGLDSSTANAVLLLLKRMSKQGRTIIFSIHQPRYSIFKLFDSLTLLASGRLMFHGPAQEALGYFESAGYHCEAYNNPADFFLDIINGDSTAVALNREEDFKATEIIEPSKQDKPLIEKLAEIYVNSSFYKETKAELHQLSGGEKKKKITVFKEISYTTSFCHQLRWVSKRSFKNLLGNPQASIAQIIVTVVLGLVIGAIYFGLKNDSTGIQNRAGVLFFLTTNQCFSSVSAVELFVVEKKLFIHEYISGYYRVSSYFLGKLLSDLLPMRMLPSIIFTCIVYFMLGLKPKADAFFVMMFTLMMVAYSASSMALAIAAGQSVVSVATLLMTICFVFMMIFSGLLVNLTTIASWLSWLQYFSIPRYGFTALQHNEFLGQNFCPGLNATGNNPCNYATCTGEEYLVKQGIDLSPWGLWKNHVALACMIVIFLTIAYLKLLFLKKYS
Sequence of X-box-binding protein 1 (P17861 whole entry): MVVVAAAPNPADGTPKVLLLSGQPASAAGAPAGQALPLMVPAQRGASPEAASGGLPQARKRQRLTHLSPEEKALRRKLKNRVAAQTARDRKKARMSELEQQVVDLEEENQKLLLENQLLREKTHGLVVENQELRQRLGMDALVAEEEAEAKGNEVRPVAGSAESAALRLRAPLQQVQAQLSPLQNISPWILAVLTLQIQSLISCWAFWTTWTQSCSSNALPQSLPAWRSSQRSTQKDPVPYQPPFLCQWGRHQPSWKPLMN
Sequence of Protein Tat (P04608 whole entry): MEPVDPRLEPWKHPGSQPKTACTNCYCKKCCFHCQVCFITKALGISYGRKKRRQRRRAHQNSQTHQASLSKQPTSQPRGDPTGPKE
Sequence of ATP-dependent translocase ABCB1 (P08183 whole entry): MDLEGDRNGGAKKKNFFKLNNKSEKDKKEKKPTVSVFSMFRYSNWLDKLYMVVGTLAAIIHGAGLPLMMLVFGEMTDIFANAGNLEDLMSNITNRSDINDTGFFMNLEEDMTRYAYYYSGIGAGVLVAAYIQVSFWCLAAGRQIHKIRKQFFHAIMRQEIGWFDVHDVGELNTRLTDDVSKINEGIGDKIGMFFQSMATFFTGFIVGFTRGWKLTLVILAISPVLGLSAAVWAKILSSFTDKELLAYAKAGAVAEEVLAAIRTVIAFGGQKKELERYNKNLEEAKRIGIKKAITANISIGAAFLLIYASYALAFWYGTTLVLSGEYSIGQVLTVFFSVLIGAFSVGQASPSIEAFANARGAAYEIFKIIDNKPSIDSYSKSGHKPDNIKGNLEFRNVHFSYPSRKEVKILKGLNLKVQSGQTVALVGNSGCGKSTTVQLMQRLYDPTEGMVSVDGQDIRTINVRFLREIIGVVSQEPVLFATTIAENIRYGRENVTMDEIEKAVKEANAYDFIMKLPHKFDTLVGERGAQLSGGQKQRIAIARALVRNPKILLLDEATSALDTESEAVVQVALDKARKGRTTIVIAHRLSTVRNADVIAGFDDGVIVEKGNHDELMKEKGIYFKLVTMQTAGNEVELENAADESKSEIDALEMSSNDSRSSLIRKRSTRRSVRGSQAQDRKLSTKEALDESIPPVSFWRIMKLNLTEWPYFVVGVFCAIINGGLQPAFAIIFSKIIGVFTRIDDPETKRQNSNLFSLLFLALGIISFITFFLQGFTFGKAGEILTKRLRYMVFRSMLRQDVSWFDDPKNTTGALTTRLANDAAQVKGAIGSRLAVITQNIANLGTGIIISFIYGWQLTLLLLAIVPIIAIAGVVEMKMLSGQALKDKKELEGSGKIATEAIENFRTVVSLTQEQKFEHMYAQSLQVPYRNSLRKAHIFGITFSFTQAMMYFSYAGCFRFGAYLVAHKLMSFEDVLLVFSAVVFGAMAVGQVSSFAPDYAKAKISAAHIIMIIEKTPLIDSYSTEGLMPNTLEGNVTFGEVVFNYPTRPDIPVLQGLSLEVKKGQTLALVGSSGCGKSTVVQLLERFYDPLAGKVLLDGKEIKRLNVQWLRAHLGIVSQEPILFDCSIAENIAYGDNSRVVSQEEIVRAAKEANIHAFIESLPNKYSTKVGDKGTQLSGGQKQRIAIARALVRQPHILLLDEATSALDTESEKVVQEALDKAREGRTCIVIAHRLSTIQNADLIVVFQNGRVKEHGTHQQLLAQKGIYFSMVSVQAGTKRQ
Sequence of Fructose-bisphosphate aldolase (P9WQA3 whole entry): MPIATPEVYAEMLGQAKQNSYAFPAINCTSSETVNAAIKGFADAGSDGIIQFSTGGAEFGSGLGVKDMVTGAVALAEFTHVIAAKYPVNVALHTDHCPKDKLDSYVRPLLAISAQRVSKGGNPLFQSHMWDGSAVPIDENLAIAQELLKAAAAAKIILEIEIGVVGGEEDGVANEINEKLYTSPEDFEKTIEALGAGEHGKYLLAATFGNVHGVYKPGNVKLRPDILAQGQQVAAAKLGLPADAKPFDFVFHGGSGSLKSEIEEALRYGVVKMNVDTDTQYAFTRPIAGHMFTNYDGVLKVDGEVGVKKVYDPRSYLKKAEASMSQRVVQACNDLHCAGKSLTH
Sequence of Peroxisome proliferator-activated receptor gamma/Nuclear receptor coactivator 1 (P37231 whole entry): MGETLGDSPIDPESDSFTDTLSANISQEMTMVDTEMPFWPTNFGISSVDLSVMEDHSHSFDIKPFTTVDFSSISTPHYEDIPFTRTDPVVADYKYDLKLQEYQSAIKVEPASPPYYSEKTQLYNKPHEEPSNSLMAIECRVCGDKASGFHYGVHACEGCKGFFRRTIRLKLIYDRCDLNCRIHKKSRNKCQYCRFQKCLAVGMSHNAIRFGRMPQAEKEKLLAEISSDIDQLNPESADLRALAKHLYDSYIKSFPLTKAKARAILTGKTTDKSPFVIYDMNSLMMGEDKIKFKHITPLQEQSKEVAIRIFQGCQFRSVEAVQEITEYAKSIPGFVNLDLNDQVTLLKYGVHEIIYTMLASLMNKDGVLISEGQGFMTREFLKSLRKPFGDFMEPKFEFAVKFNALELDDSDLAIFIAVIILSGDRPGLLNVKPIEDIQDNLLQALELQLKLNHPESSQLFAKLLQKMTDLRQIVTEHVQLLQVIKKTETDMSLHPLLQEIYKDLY
Sequence of Peroxisome proliferator-activated receptor gamma/Nuclear receptor coactivator 1 (Q15788 whole entry, further chain): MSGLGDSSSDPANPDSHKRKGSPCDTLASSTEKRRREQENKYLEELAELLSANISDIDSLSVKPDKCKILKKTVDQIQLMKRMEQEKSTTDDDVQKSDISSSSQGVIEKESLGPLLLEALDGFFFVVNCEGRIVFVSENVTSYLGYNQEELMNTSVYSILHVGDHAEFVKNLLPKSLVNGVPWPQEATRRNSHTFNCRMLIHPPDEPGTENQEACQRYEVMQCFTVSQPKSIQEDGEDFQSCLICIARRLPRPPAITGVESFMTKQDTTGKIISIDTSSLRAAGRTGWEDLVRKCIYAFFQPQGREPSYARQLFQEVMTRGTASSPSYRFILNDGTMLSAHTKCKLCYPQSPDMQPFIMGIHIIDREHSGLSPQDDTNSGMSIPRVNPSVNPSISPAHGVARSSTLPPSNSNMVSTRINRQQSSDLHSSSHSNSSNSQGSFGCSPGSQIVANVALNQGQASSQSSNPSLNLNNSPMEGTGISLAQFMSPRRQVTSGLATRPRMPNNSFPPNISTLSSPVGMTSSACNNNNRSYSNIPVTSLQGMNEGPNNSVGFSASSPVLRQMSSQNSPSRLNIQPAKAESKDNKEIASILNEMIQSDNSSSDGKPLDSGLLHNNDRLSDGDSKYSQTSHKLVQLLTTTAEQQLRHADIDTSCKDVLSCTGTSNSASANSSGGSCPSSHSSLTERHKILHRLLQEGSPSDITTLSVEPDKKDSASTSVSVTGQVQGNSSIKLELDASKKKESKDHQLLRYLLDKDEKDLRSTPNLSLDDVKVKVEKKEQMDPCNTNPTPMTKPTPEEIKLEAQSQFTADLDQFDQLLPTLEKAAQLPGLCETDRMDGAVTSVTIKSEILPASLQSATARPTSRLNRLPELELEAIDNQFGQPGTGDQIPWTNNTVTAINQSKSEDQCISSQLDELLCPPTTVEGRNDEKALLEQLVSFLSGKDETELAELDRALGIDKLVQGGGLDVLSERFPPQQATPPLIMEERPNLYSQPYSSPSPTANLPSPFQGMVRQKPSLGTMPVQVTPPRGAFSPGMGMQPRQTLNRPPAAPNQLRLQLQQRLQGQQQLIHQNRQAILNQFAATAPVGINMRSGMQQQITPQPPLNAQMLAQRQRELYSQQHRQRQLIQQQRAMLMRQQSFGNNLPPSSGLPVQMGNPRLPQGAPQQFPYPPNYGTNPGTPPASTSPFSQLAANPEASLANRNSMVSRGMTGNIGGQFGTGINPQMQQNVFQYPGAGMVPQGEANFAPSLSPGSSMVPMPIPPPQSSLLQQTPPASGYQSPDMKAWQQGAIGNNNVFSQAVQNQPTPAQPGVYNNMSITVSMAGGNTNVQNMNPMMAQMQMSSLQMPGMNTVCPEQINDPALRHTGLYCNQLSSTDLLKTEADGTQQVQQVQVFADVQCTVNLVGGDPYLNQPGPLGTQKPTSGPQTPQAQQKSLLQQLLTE

Regarding `Cc1cc(Cl)n2c(nc3cc(F)c(F)cc32)c1C#N`, the EC50 was > 59.6 µM (inactive) with HEK293 [1]; > 350 µM (not active) in “cells [2]”; 3.35 µM (active) in experiment [3]; 0.139 µM (inconclusive) in the experiment with BJ; 54.5 µM (active) in “cells [7]”; > 59.6 µM (inactive) with HEK293 [9]. On X-box-binding protein 1, the “Absolute IC50 (XBP1)” value is 10 µM. Moreover, the AC50 in experiment [4] was 14.8 µM (active); in [5], 6.62 µM (active); in [6], 4.49 µM (active); in experiment [8], 3.56 µM (active).
With `COc1ccc2c3c([nH]c2c1)[C@H](CO)N(C(=O)c1ccccc1)CC31CN(S(=O)(=O)c2cccs2)C1`, the AC50 with A549 was 26 µM (active).
With `COc1cc(C(=O)N/N=C/c2ccc(OC)c(CN3CCN(c4ccc(F)cc4)CC3)c2)ccc1O`, the concentration for half-maximal inhibition (IC50) in experiment [10] was 83.3 µM (active). Moreover, the figures for the EC50 in [11] and in [12] were 0.76 µM (inactive) and 0.165 µM (active), respectively.
As for `Cc1c(C(=O)Nc2ccc(Cl)cc2)c2ccccn2c1CCc1ccncc1`, the IC50 is 0.468 µM (active) in experiment [13] and > 100 µM (active) on Protein Tat. For the same compound, the EC50 was > 30 µM (not active) in [14] and 2.16 µM (active) in [15].
As for `CC(C)Cc1nc2sc3c(NCc4ccco4)ncnc3c2c2c1COC(C)(C)C2`, the half-maximal effective concentration (EC50) in experiment [16] is 0.0238 µM (active); in [17], > 79.4 µM (not active); in [18], > 79.4 µM (not active); in experiment [19], 0.615 µM (active); in [20] it was 14 µM (active); in [21], 14.3 µM (active). Besides, the half-maximal effective concentration (EC50) in experiment [22] is on record as > 79.4 µM (not active).
